Reference: PMC8998031, “A Boronated Derivative of Temozolomide Showing Enhanced Efficacy in Boron Neutron Capture Therapy of Glioblastoma” (Cells, 2022)

Tests used:
[1] = In vivo boron distribution in GBM mouse model (ICP-AES); design: species or system nude mice; conditions: 50 mg 10B/kg
Protocol: (§1) Single-cell suspension with HS683 cells was prepared at 2 × 10^7 cells/mL. Nude mice were anesthetized with an intraperitoneal injection of tribromoethanol at a dose of 150 mg/kg and positioned in a stereotaxic instrument. After disinfection with 75% alcohol, the scalp was cut open with a scalpel, the bregma point was selected, and a hole was made in the mouse skull using a 1 mm cranial drill. Then, 5 μL of cell suspension was taken using a micro-injector, which was then fixed on the brain with a needle depth at 3.0 mm using a stereotaxic instrument. Three minutes later, the micro-injector was lifted by 0.5 mm to make rooms for the injection of cells at 1 μL/min. After removing the needle, the drill hole in the mice skull was then filled with bone wax, the skin incision was sutured, and the wound was disinfected with iodophor. The GBM model was established approximately 28 days after cell injection.
TMZB (molecular weight, 412.21) and BPA (209.01; obtained from HEC Pharm, Dongguan, China) were made into 0.0–1.0 mg/g aqueous solutions. GBM cells and HUV-EC cells were treated with different concentrations of TMZB or BPA solutions. The drug-containing medium was removed 12 h later. […] Eight nude mice in each group were injected with 500 mg/kg of BPA, TMZ, or TMZB through the tail vein of the nude mice, in a 3,5-tetrazine-8-methoxy-4-phenylboronic acid-ethyl ester solution. […] Cells or tissues were digested with concentrated nitric acid for the analysis of boron concentration via ICP-AES.

[2] = system: HS683 cells; test: Boron uptake in HS683 cells (ICP-AES); format: cell-based, Human; conditions: series of concentrations, 12 h
Protocol: (§2) Human GBM cells U87MG, U251, and HS683 and endothelial cell HUV-EC were obtained from the National Infrastructure of Cell Line Resource in Beijing, China. Cell lines were authenticated at the National Infrastructure of Cell Line Resource, Beijing, China. GBM cells were cultured in a DMEM medium containing 10% fetal bovine serum and 1% penicillin/streptomycin at 5% CO2 and 37 °C. HUV-EC cells were cultured in complete culture medium (Procell Life Science & Technology Co., Ltd., Wuhan, China). Cells were tested mycoplasma free using a Mycoplasma Test Kit (Cellorlab, China). All materials for cell culture were purchased from Gibco Invitrogen (Grand Island, NY, USA) unless otherwise noted.
(§3) TMZB (molecular weight, 412.21) and BPA (209.01; obtained from HEC Pharm, Dongguan, China) were made into 0.0–1.0 mg/g aqueous solutions. GBM cells and HUV-EC cells were treated with different concentrations of TMZB or BPA solutions. The drug-containing medium was removed 12 h later. The biodistribution of boron in TMZB- or BPA-treated mice was measured at the timepoint for neutron irradiation, i.e., 2 h after drug injection. Eight nude mice in each group were injected with 500 mg/kg of BPA, TMZ, or TMZB through the tail vein of the nude mice, in a 3,5-tetrazine-8-methoxy-4-phenylboronic acid-ethyl ester solution. […]

[3] = system: U251 cells; test: Boron uptake in U251 cells (ICP-AES); format: cell-based, Human; conditions: exposure of 1.99 mM BPA, 12 h
Protocol: as §2, §3

[4] = system: HS683 cells; test: Clonogenic cell survival assay with BNCT (neutron irradiation); format: cell-based, Human; conditions: total neutron fluence 2.4 ± 0.3 × 10^11 n/cm^2
Protocol: HS683 cells were prepared in a 200 μL centrifuge tube and treated with BPA or TMZB at gradient concentrations in 0.0–1.0 μg/mL for 30 min. Cells were irradiated with epithermal neutrons for approximately 30 min to achieve total neutron fluence at 2.4 ± 0.3 × 10^11 n/cm^2. After radiation, the drug-containing medium was removed, and cells were incubated in fresh medium for 12 h. A certain number of cells in a single-cell suspension were seeded into 6-well plates to grow colonies. After 2 weeks of incubation, colonies were fixed with 70% ethanol at room temperature for 10 min, stained with 0.1% crystal violet, and then dried overnight. Colonies with more than 50 cells were scored as clonogenic survivors under a bright field microscope.

[5] = system: HS683 GBM mouse model; test: In vivo BNCT test, PET/CT imaging with 18F-FDG; design: species or system nude mice
Protocol: as §1
PET/CT imaging with 1.5 uCi/g ^18F-FDG was performed for all the mice anesthetized with 2% isoflurane at 25 °C before BNCT. Mice were anesthetized with an intraperitoneal injection of tribromoethanol at a dose of 150 mg/kg. The mice were then injected i.v. with 50 mg ^10B/kg of BPA (5% fructose solution) or the TMZB solution at 50 mg ^10B/kg or TMZ at 600 mg/kg through the tail vein. Then, 90 min later, mice were fixed in the mold and anesthetized for BNCT. Mice heads were treated with 2 kw of neutron fluence for 2 h each time and 4 times for each mouse with 2 days interval in between, to achieve a total neutron fluence of 16.5 ± 0.3 × 10^11 n/cm^2. Boron compounds were injected prior to each of the radiation fractions. PET/CT imaging was performed again 31 days after BNCT. Three-dimensional reconstructions of the PET/CT images were performed using AMIDE (Stanford University, Stanford, CA, USA). ROI, SUV values, and tumor volume were then analyzed.

[6] = system: HS683 cells; test: CCK8 cell proliferation assay; format: cell-based, Human; conditions: read-out: IC50 (cell viability, CCK8)
Protocol: Cell proliferation was measured with a CCK8 assay following the manufacturer’s protocol (Dojindo Molecular Technologies, Inc., Kumamoto, Japan). The IC50 was calculated using Prism software using the following algorithm: Cell Viability=100/1+10^(LogIC50−Concentration)×Hillslope

[7] = system: HS683 cells; test: Clonogenic cell survival assay without BNCT; format: cell-based, Human

## N[C@@H](Cc1ccc([10B](O)O)cc1)C(=O)O [BPA, boronated phenylalanine]
[1]; 2 h after administration
  tissue of main boron accumulation: mainly accumulates in the kidney
[1]; 2 h after i.v. administration
  boron concentration in mice tumors: 16.93 ± 9.75 μg B/g
[1]; 6 h after i.v. administration
  boron concentration in mice tumors: 5.07 ± 1.43 μg B/g
[1]; GBM mouse model
  tumor-to-blood ratio (T/B) of boron concentrations: 2.26 ± 1.56
  tumor-to-normal brain ratio (T/N) of boron concentrations: 2.61 ± 1.98
[2]
  boron uptake (in words): low uptake
[3]
  boron uptake: 0.126 μg/10^6 cells
[4]; HS683, 0.239 mM BPA
  clonogenic cell death after BNCT: 63.7% ± 6.3
[5]; 31 days after BNCT, 50 mg 10B/kg, 18F-FDG PET/CT
  SUV max after BNCT: significantly reduced
[5]; 31 days after BNCT, compared with TMZ-treated group
  18F-FDG uptake in tumors after BNCT: significantly lower than that in the TMZ-treated group
[5]; 31 days after neutron irradiation, 50 mg 10B/kg i.v., total neutron fluence 16.5 ± 0.3 × 10^11 n/cm^2, PET/CT
  tumor volume decrease (tumor shrinkage) after BNCT: 35.2%

## N[C@@H](Cc1ccc(B(O)O)cc1)C(=O)O [BPA, boronated phenylalanine]
[6]; without BNCT
  IC50: 1110 µM
[7]
  IC50: 2310 µM

## Cn1nnc2c(C(N)=O)ncn2c1=O [TMZ, temozolomide]
[4]; HS683, 0.258 mM TMZ
  clonogenic cell death after BNCT: 47.9% ± 6.6
[6]; Homo sapiens, Hs 683, without BNCT
  IC50: 284 µM
[7]; Homo sapiens, Hs 683
  IC50: 213 µM
